For one assay, the target named is T1, p300 (Homo sapiens, UniProt Q09472).
T1 construct: host or cells: A549 P300 HiBit cells
The experiment in a line: P300 degradation, HiBit technology in A549 P300 HiBit cells (2 h). It counts as cell-based. The settings on record: 2 hrs post treatment; for Dmax: A549, A549 P300 HiBit cells; for DC50: A549 P300 HiBit cells. The gist of the method:
(§1)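 Luminescence after lytic HiBiT detection (10 min, room temperature) gave degradation potency and Dmax. Before that, knock-in A549 cells grown overnight in F-12K/10% HI-FBS were exposed to serially diluted compound at 37 °C, 5% CO2 for the assay time stated.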

In a further assay the target is T2, CBP (Homo sapiens, UniProt Q92793).
T2 construct: host or cells: A549 CBP HiBit cells
T2 sequence (Q92793 whole entry): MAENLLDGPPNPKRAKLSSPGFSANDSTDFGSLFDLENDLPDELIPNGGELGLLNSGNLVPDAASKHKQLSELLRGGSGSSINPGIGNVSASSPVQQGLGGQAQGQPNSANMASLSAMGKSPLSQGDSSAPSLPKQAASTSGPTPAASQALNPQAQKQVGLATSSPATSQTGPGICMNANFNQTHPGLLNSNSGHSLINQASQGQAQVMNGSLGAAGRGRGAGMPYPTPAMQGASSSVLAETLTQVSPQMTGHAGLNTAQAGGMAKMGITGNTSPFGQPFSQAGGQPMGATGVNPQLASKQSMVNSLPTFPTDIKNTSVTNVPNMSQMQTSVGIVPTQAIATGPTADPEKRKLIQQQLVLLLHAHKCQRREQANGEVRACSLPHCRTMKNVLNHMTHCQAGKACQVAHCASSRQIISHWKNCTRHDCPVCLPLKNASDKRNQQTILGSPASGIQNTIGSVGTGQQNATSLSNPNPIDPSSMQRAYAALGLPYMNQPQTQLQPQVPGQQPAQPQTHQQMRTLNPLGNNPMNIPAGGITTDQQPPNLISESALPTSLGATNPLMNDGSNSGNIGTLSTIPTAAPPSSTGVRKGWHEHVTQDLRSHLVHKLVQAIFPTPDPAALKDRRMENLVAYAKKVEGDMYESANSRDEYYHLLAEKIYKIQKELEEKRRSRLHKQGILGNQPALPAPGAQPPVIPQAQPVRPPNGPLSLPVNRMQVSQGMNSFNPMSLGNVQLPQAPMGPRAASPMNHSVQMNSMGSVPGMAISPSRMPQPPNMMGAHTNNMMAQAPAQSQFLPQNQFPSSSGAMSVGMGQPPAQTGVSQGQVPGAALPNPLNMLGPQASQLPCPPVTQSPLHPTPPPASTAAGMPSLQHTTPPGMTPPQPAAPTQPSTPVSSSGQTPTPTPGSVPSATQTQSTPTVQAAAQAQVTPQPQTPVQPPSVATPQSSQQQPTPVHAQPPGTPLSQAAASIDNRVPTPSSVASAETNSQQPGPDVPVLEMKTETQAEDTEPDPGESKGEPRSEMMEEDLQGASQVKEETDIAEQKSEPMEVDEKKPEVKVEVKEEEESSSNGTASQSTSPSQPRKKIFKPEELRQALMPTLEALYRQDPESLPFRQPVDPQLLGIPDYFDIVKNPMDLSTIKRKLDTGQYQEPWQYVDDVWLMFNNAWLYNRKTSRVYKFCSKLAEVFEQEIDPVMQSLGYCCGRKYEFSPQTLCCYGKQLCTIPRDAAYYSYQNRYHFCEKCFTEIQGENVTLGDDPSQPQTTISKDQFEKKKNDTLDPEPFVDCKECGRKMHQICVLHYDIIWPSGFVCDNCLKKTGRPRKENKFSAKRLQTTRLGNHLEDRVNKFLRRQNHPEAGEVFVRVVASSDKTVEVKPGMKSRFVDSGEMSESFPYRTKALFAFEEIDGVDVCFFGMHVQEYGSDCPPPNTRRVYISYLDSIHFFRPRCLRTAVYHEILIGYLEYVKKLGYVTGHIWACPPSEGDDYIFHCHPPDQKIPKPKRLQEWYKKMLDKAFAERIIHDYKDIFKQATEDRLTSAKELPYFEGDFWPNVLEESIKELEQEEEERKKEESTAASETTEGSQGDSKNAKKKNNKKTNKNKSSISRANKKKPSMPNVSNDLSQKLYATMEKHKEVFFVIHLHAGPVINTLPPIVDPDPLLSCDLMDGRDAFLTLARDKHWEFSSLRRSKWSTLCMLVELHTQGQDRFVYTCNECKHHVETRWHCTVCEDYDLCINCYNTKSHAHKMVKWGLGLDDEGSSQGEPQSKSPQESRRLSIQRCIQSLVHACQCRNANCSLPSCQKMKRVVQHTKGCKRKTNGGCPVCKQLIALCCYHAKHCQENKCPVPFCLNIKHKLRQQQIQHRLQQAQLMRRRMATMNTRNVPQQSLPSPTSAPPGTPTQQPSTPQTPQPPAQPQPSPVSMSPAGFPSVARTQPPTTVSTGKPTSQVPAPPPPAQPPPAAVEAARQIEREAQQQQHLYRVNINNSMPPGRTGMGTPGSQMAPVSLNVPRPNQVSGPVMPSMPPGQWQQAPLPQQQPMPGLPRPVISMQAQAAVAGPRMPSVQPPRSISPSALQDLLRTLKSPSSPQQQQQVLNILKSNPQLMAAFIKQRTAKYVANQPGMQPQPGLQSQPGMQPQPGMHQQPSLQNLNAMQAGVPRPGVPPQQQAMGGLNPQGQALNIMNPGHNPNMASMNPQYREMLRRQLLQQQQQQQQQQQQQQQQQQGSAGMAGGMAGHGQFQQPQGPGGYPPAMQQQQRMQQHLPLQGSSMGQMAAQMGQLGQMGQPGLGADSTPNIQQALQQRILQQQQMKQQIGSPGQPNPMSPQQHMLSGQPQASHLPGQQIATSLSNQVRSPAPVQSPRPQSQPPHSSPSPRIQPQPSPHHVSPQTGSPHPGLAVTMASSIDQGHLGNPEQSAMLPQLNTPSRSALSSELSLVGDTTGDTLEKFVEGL
Kind of assay: CBP degradation, HiBit technology in A549 CBP HiBit cells (24 h). The settings on record: 24 hrs post treatment. Format: cell-based. The gist of the method: as §1
For orientation: With HiBiT, luminescence reflects the tagged protein that the partner subunit can reach.

The text below walks through data of patent US20250114345A1, “COMPOUNDS AND COMPOSITIONS AS CBP/P300 DEGRADERS AND USES THEREOF” (Oncopia Therapeutics, Inc. d/b/a/ SK Life Science Labs, priority 2023, published 2025).

SMILES strings stand for the structures.

T1 sequence (Q09472 whole entry): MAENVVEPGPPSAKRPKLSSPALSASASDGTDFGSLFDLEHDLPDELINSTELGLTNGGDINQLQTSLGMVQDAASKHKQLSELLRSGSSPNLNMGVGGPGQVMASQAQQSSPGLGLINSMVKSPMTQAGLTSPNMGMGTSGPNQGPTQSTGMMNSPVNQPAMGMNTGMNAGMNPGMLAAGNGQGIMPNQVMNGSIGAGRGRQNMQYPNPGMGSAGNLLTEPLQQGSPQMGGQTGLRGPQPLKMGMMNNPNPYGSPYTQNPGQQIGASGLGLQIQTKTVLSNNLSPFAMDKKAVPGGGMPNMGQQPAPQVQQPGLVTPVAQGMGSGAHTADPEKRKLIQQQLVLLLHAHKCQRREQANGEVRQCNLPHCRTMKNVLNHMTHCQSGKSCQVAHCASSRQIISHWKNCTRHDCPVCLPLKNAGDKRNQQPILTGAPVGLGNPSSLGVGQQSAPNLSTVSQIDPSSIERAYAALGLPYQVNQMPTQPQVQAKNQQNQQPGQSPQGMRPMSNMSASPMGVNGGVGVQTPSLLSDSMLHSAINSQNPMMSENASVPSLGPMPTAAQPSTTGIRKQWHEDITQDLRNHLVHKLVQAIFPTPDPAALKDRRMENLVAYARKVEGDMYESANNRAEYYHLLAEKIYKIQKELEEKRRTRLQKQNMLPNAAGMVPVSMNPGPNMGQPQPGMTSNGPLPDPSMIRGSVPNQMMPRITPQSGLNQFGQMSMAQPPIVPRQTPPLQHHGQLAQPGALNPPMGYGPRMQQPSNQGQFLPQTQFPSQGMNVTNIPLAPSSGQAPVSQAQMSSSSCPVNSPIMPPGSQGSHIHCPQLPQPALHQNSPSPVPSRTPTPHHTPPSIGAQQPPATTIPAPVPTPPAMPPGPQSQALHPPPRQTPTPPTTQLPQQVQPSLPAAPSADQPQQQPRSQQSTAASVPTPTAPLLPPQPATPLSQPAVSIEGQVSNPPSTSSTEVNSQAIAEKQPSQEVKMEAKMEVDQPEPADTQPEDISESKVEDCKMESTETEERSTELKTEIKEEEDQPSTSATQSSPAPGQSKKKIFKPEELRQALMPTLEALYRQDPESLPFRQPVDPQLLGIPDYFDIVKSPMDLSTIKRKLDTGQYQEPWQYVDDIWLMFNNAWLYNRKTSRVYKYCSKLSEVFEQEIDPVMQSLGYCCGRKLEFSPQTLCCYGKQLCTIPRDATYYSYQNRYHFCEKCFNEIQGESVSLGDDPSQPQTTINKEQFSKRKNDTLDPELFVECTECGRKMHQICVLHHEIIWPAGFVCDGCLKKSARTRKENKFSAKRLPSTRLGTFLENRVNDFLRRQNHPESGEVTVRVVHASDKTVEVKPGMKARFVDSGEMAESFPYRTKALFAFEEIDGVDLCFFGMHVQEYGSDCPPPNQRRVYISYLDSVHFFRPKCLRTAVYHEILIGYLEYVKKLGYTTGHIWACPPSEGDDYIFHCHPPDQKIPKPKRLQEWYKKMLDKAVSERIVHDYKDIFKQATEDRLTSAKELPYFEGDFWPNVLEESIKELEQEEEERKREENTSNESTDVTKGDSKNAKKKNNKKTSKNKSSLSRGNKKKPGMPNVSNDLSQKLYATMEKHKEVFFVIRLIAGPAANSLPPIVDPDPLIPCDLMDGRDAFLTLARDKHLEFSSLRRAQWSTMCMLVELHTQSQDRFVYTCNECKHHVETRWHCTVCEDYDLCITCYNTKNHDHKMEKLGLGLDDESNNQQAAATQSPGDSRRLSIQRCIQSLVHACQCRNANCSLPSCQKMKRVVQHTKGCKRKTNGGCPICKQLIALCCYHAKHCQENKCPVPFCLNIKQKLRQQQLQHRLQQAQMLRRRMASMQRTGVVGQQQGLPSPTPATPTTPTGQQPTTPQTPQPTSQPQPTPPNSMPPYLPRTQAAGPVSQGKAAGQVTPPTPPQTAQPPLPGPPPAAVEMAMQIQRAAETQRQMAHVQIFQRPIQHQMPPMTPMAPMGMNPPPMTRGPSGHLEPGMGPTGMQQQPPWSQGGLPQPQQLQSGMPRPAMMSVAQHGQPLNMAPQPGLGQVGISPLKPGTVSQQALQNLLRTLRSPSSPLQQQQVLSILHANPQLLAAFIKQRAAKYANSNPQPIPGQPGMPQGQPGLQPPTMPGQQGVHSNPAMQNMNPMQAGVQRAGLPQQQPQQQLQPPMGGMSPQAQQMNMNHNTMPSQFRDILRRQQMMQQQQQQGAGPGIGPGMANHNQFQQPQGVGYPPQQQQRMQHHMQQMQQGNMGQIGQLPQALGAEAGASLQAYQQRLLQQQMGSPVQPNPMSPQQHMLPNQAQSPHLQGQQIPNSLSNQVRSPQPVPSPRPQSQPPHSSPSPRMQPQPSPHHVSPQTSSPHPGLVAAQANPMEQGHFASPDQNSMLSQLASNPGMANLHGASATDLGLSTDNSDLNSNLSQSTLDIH

Usually Dmax stands for the greatest extent of degradation seen. Low values mean shallow degradation, high ones deep degradation. What is called DC50 is the midpoint of the concentration-degradation curve. Consider `Cn1c(=O)n(C)c2cc(N3CCCc4nc(-c5ccc(C(=O)NCC#Cc6ccc7occ(C8CCC(=O)NC8=O)c7c6)nc5)ncc43)ccc21` (centres unmarked) [Example A132, 5-(5-(1,3-dimethyl-2-oxo-2,3-dihydro-1H-benzo[d]imidazol-5-yl)-5,6,7,8-tetrahydropyrido[3,2-d]pyrimidin-2-yl)-N-(3-(3-(2,6-dioxo-piperidin-3-yl)benzofuran-5-yl)prop-2-yn-1-yl)picolinamide], for which, on p300, the Dmax was over 80% and the 50% degradation concentration (DC50) lay in the range of 1 to 9.9 nM. On CBP, this molecule came in with a DC50 of over 1000 nM and a Dmax of under 20%.

On p300, `COc1cc(N2CCOc3cc(-c4ccc(C(=O)NCC#Cc5ccc6occ(C7CCC(=O)NC7=O)c6c5)nc4)ncc32)c2cc(C)c(=O)n(C)c2c1` (centres unmarked) [Example B112, N-(3-(3-(2,6-dioxopiperidin-3-yl)benzofuran-5-yl)prop-2-yn-1-yl)-5-(4-(7-methoxy-1,3-dimethyl-2-oxo-1,2-dihydroquinolin-5-yl)-3,4-dihydro-2H-pyrido[4,3-b][1,4]oxazin-7-yl) picolinamide] gave a Dmax of over 80% and a DC50 of under 1 nM. In addition, on CBP, the DC50 lay within 100 to 999 nM and the maximal degradation (Dmax) is under 20%.

At p300, `Cc1cc(-c2cc3c(cc2F)N(c2ccc4c(c2)n(C)c(=O)n4C)CCO3)cnc1C(=O)NCC#Cc1ccc2occ(C3CCC(=O)NC3=O)c2c1` (centres unmarked) [Example A111, 5-(4-(1,3-dimethyl-2-oxo-2,3-dihydro-1H-benzo[d]imidazol-5-yl)-6-fluoro-3,4-dihydro-2H-benzo[b] [1,4]oxazin-7-yl)-N-(3-(3-(2,6-dioxo-piperidin-3-yl)benzofuran-5-yl)prop-2-yn-1-yl)-3-methylpicolinamide] showed a Dmax of over 80% and a DC50 of 10 to 99 nM. On CBP, this molecule had a DC50 of over 1000 nM and a Dmax of under 20%.

Take `Cc1cc(-c2ncc3c(n2)OCCN3c2ccc3c(c2)n(C)c(=O)n3C)cnc1C(=O)NCC#Cc1cc2c([C@H]3CCC(=O)NC3=O)cccc2o1` [Example A174, (R)-5-(5-(1,3-dimethyl-2-oxo-2,3-dihydro-1H-benzo [d]imidazol-5-yl)-6,7-dihydro-5H-pyrimido [4,5-b][1,4]oxazin-2-yl)-N-(3-(4-(2,6-dioxopiperidin-3-yl)benzofuran-2-yl)prop-2-yn-1-yl)-3-methylpicolinamide]: at p300, the Dmax was over 80% and the DC50 lay in the range of 1 to 9.9 nM. In addition, on CBP, the 50% degradation concentration (DC50) was over 1000 nM and the greatest degradation seen (Dmax) was under 20%.

On p300, `Cn1c(=O)n(C)c2cc(-c3cccc4cc(-c5ccc(C(=O)NCC#Cc6cc7c(C8CCC(=O)NC8=O)nccc7o6)nc5)ncc34)ccc21` (centres unmarked) [Example A213, 5-(8-(1,3-dimethyl-2-oxo-2,3-dihydro-1H-benzo[d]imidazol-5-yl)isoquinolin-3-yl)-N-(3-(4-(2,6-dioxo-piperidin-3-yl)furo[3,2-c]pyridin-2-yl)prop-2-yn-1-yl)picolinamide] displayed a Dmax of over 80% and a DC50 of under 1 nM. At CBP, the DC50 was over 1000 nM and the Dmax is under 20%.

On p300, `Cc1cc(-c2ncc3c(n2)CCCN3c2cccc3c2cc(C)c(=O)n3C)cnc1C(=O)NCC#Cc1cc2c(C3CCC(=O)NC3=O)cccc2o1` (centres unmarked) [Example B153, 5-(5-(1,3-dimethyl-2-oxo-1,2-dihydroquinolin-5-yl)-5,6,7,8-tetrahydropyrido[3,2-d]pyrimidin-2-yl)-N-(3-(4-(2,6-dioxopiperidin-3-yl)benzofuran-2-yl)prop-2-yn-1-yl)-3-methylpicolinamide] showed a Dmax of over 80% and a DC50 of under 1 nM. In addition, at CBP, the DC50 lay in the range of 100 to 999 nM and the Dmax is under 20%.

As for `CN1Cc2c(-c3cccc4cc(-c5ccc(C(=O)NCC#Cc6ccc7cnn(C8CCC(=O)NC8=O)c7c6)nc5)ncc34)cc(C(C)(F)F)cc2N(C)C1=O` (centres unmarked) [Example B111, 5-(8-(7-(1,1-difluoroethyl)-1,3-dimethyl-2-oxo-1,2,3,4-tetrahydroquinazolin-5-yl)isoquinolin-3-yl)-N-(3-(1-(2,6-dioxopiperidin-3-yl)-1H-indazol-6-yl)prop-2-yn-1-yl)picolinamide], the figures for the 50% degradation concentration (DC50) at p300 and on CBP were 1 to 9.9 nM and 10 to 99 nM, respectively.

With `Cc1cc2c(N3CCCc4nc(-c5ccc(C(=O)NCC#Cc6ccc7occ(C8CCC(=O)NC8=O)c7c6)nc5)ncc43)cc(N3CCOCC3)nc2n(C)c1=O` (centres unmarked) [Example B61, 5-(5-(6,8-dimethyl-2-morpholino-7-oxo-7,8-dihydro-1,8-naphthyridin-4-yl)-5,6,7,8-tetrahydropyrido[3,2-d]pyrimidin-2-yl)-N-(3-(3-(2,6-dioxopiperidin-3-yl)benzofuran-5-yl)prop-2-yn-1-yl)picolinamide], on p300, the Dmax lay within 60 to 79% and the DC50 lay within 1 to 9.9 nM. At CBP, this molecule registered a DC50 of over 1000 nM and a Dmax of under 20%.

For the molecule `Cn1c(=O)n(C)c2cc(C3=CC(C)(C)Oc4cc(-c5ccc(C(=O)NCC#Cc6cc7c(C8CCC(=O)NC8=O)cccc7o6)nc5)ncc43)ccc21` (centres unmarked) [Example A259, 5-(4-(1,3-dimethyl-2-oxo-2,3-dihydro-1H-benzo[d]imidazol-5-yl)-2,2-dimethyl-2H-pyrano[3,2-c]pyridin-7-yl)-N-(3-(4-(2,6-dioxopiperidin-3-yl)benzofuran-2-yl)prop-2-yn-1-yl)picolinamide], on p300, the Dmax was over 80% and the DC50 lay within 1 to 9.9 nM. Moreover, on CBP, the DC50 is over 1000 nM and the maximal degradation (Dmax) is under 20%.

For `Cn1c(=O)n(C)c2c(N3CCOCC3)nc(-c3cccc4cc(-c5ccc(C(=O)NCC#Cc6cc7c(C8CCC(=O)NC8=O)cccc7o6)nc5)ncc34)cc21` (centres unmarked) [Example A223, 5-(8-(1,3-dimethyl-4-morpholino-2-oxo-2,3-dihydro-1H-imidazo[4,5-c]pyridin-6-yl)isoquinolin-3-yl)-N-(3-(4-(2,6-dioxopiperidin-3-yl)benzofuran-2-yl)prop-2-yn-1-yl)picolinamide], the Dmax at p300 was over 80%; at CBP it was under 20%. The DC50 on p300 is under 1 nM; at CBP, 100 to 999 nM.

`Cc1oc2ccc(C#CCNC(=O)c3ccc(-c4cc5cccc(-c6cc(C(C)C)c7c(c6)n(C)c(=O)n7C)c5cn4)cn3)cc2c1C1CCC(=O)NC1=O` (centres unmarked) [Example A248, N-(3-(3-(2,6-dioxo-piperidin-3-yl)-2-methylbenzofuran-5-yl)prop-2-yn-1-yl)-5-(8-(7-isopropyl-1,3-dimethyl-2-oxo-2,3-dihydro-1H-benzo [d]imidazol-5-yl)isoquinolin-3-yl) picolinamide]: on p300, the Dmax was over 80% and the half-maximal degradation concentration (DC50) was 10 to 99 nM. Moreover, on CBP, the DC50 was over 1000 nM and the Dmax was under 20%.

For `Cc1cc2c(N3CCCc4nc(-c5ccc(C(=O)NCC#Cc6cc7c(C8CCC(=O)NC8=O)nccc7o6)nc5)ncc43)nc(N3CCC3)cc2n(C)c1=O` (centres unmarked) [Example B35, 5-(5-(7-(azetidin-1-yl)-1,3-dimethyl-2-oxo-1,2-dihydro-1,6-naphthyridin-5-yl)-5,6,7,8-tetrahydropyrido[3,2-d]pyrimidin-2-yl)-N-(3-(4-(2,6-dioxopiperidin-3-yl)furo[3,2-c]pyridin-2-yl)prop-2-yn-1-yl)picolinamide], the figures for the Dmax at p300 and on CBP were over 80% and 20 to 39%, respectively. Further, the DC50 fell in the range of 1 to 9.9 nM at p300 and 10 to 99 nM on CBP.

Turning to `Cn1c(=O)n(C)c2c(N3CCOCC3)cc(N3CCCc4nc(-c5ccc(C(=O)NCC#Cc6ccc7occ(C8CCC(=O)NC8=O)c7c6)nc5)ncc43)cc21` (centres unmarked) [Example A127, 5-(5-(1,3-dimethyl-7-morpholino-2-oxo-2,3-dihydro-1H-benzo [d]imidazol-5-yl)-5,6,7,8-tetrahydro-pyrido[3,2-d]pyrimidin-2-yl)-N-(3-(3-(2,6-dioxopiperidin-3-yl)benzofuran-5-yl)prop-2-yn-1-yl)picolinamide], at p300, the Dmax was over 80% and the DC50 was under 1 nM. On CBP, the DC50 is over 1000 nM and the Dmax was under 20%.

In the case of `Cc1cc2c(N3CCCc4nc(-c5ccc(C(=O)NCC#Cc6cc7c(C8CCC(=O)NC8=O)cccc7o6)nc5)ncc43)cc(C3CCC3)nc2n(C)c1=O` (centres unmarked) [Example B164, 5-(5-(2-cyclobutyl-6,8-dimethyl-7-oxo-7,8-dihydro-1,8-naphthyridin-4-yl)-5,6,7,8-tetra-hydropyrido[3,2-d]pyrimidin-2-yl)-N-(3-(4-(2,6-dioxopiperidin-3-yl)benzofuran-2-yl)prop-2-yn-1-yl)picolinamide], on p300, the Dmax is over 80% and the DC50 is 10 to 99 nM. On CBP, this molecule showed a DC50 of over 1000 nM and a Dmax of under 20%.

At p300, `Cn1c(=O)n(C)c2c(N3CCC(C)(O)CC3)cc(-c3cccc4cc(-c5ccc(C(=O)NCC#Cc6cccc(NC7CCC(=O)NC7=O)c6)nc5)ncc34)cc21` (centres unmarked) [Example A271, N-(3-(3-((2,6-dioxopiperidin-3-yl)amino)phenyl)prop-2-yn-1-yl)-5-(8-(7-(4-hydroxy-4-methylpiperidin-1-yl)-1,3-dimethyl-2-oxo-2,3-dihydro-1H-benzo[d]imidazol-5-yl)isoquinolin-3-yl)picolinamide] returned a Dmax of over 80% and a DC50 of under 1 nM. At CBP, this molecule showed a 50% degradation concentration (DC50) of 1 to 9.9 nM and a Dmax of 60 to 79%.

Take `CC(C)c1cc(-c2cccc3cc(-c4ccc(C(=O)NCC#Cc5ccc6nnn(C7CCC(=O)NC7=O)c6c5)nc4)ncc23)cc2c1n(C)c(=O)n2C` (centres unmarked) [Example A3, N-(3-(1-(2,6-Dioxopiperidin-3-yl)-1H-benzo[d][1,2,3]triazol-6-yl)prop-2-yn-1-yl)-5-(8-(7-isopropyl-1,3-dimethyl-2-oxo-2,3-dihydro-1H-benzo[d]imidazol-5-yl)isoquinolin-3-yl)picolinamide]: the values for the Dmax on p300 and at CBP were over 80% and under 20%, respectively. Also, the DC50 on p300 is under 1 nM; on CBP it was over 1000 nM.
